Assay results taken from ChEMBL document CHEMBL1139589, “In vitro antiproliferative activity against human colon cancer cell lines of representative 4-thiazolidinones. Part I” (Bioorg Med Chem Lett, 2005).

What was measured:
[1] = target: T1, Prostaglandin G/H synthase 2 (Homo sapiens) (UniProt P35354); details: at 10 µM
T1 sequence (whole entry): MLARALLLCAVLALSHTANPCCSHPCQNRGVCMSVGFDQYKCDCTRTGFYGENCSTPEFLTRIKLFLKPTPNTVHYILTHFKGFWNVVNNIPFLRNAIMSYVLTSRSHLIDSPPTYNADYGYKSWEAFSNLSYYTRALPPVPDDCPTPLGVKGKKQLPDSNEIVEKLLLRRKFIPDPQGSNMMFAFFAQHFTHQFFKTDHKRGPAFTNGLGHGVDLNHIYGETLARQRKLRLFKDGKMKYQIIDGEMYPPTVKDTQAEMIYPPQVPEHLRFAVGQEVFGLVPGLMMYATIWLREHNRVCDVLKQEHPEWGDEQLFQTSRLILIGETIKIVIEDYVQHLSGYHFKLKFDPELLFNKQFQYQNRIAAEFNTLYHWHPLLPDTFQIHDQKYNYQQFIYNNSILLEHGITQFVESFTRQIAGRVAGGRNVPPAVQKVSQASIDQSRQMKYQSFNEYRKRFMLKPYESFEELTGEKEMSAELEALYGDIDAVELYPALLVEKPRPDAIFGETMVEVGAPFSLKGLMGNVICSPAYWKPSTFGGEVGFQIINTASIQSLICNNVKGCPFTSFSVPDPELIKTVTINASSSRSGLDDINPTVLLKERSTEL
Description: Percentage inhibition activity at a concentration of 10 uM against cyclooxygenase 2 with the compound dissolved in DMSO

[2] = target: T2, Prostaglandin G/H synthase 1 (Homo sapiens, UniProt P23219); details: at 10 µM
T2 sequence (P23219 whole entry): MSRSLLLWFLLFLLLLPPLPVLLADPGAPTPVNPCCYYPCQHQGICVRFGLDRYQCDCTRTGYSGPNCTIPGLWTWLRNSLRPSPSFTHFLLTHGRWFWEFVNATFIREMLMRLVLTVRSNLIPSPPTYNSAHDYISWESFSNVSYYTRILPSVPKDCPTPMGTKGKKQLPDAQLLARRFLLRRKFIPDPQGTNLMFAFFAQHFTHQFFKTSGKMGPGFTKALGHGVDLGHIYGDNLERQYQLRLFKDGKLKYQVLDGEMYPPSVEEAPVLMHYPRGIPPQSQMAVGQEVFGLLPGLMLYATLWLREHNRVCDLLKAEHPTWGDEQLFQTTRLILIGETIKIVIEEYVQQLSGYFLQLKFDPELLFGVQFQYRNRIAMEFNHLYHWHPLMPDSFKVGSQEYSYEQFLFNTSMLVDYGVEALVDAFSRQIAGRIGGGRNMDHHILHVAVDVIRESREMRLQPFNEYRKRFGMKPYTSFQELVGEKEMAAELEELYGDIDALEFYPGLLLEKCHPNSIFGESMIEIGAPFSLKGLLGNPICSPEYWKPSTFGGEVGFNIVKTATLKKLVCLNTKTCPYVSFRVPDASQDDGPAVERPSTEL
Description: Percentage inhibition activity at a concentration of 10 uM against cyclooxygenase 1 with the compound dissolved in DMSO

HT-29 [3] = test: Inhibition of growth of HT-29 cell line after 72+72 hours of exposure time with the compound dissolved in DMSO; assay type: functional, cell-based; details: Homo sapiens, HT-29, 72 h
[4] = Inhibition of growth of H630 cell line after 96 hours of exposure time with the compound dissolved in DMSO; assay type: functional, cell-based; details: Homo sapiens, NCI-H630, 96 h
HT-29 [5] = test: Inhibition of growth of HT-29 cell line after 72 hours of exposure time with the compound dissolved in DMSO; assay type: functional, cell-based; details: Homo sapiens, HT-29, 72 h
HCT-116 = test: Inhibition of growth of HCT116 cell line after 72 hours of exposure time with the compound dissolved in DMSO; assay type: functional, cell-based; details: Homo sapiens, HCT-116, 72 h
DLD-1 [6] = test: Inhibition of growth of DLD-1 cell line after 72+72 hours of exposure time with the compound dissolved in DMSO; assay type: functional, cell-based; details: Homo sapiens, DLD-1, 72 h
HT-29 [7] = test: Inhibition of growth of HT-29 cell line after 24+72 hours of exposure time with the compound dissolved in DMSO; assay type: functional, cell-based; details: Homo sapiens, HT-29, 72 h
HCT-8 [8] = test: Inhibition of growth of HCT-8 cell line after 72 hours of exposure time with the compound dissolved in DMSO; assay type: functional, cell-based; details: Homo sapiens, HCT-8, 72 h
[9] = Inhibition of growth of HCT116 cell line after 96 hours of exposure time with the compound dissolved in DMSO; assay type: functional, cell-based; details: Homo sapiens, HCT-116, 96 h
[10] = Inhibition of growth of HCT116 cell line after 72+72 hours of exposure time with the compound dissolved in DMSO; assay type: functional, cell-based; details: Homo sapiens, HCT-116, 72 h
DLD-1 [11] = test: Inhibition of growth of DLD-1 cell line after 96 hours of exposure time with the compound dissolved in DMSO; assay type: functional, cell-based; details: Homo sapiens, DLD-1, 96 h
[12] = Inhibition of growth of H630 cell line after 72 hours of exposure time with the compound dissolved in DMSO; assay type: functional, cell-based; details: Homo sapiens, NCI-H630, 72 h
DLD-1 [13] = test: Inhibition of growth of DLD-1 cell line after 24+72 hours of exposure time with the compound dissolved in DMSO; assay type: functional, cell-based; details: Homo sapiens, DLD-1, 72 h
[14] = Inhibition of growth of HCT116 cell line after 24+72 hours of exposure time with the compound dissolved in DMSO; assay type: functional, cell-based; details: Homo sapiens, HCT-116, 72 h
HT-29 [15] = test: Inhibition of growth of HT-29 cell line after 96 hours of exposure time with the compound dissolved in DMSO; assay type: functional, cell-based; details: Homo sapiens, HT-29, 96 h
DLD-1 [16] = test: Inhibition of growth of DLD-1 cell line after 72 hours of exposure time with the compound dissolved in DMSO; assay type: functional, cell-based; details: Homo sapiens, DLD-1, 72 h
HCT-8 [17] = test: Inhibition of growth of HCT-8 cell line after 96 hours of exposure time with the compound dissolved in DMSO; assay type: functional, cell-based; details: Homo sapiens, HCT-8, 96 h
[18] = target: T2, Prostaglandin G/H synthase 1; test: In vitro inhibition activity against cyclooxygenase 1 with the compound dissolved in DMSO
[19] = target: T3, Prostaglandin G/H synthase 2 (Homo sapiens, UniProt P35354); test: In vitro inhibition activity against cyclooxygenase 2 with the compound dissolved in DMSO
T3 sequence (P35354 whole entry): T1 sequence (whole entry)

inhibition [1] | inhibition [2] | IC50 (HT-29 [3]) | IC50 (HT-29 [5]) | IC50 (HCT-116) | IC50 (DLD-1 [6]) | IC50 (HT-29 [7]) | IC50 (HCT-8 [8]) | IC50 (DLD-1 [11]) | IC50 (DLD-1 [13]) | IC50 (HT-29 [15]) | IC50 (DLD-1 [16]) | IC50 (HCT-8 [17]) | IC50 [18] | IC50 [19] | Structure (SMILES) | IC50 [4] | IC50 [9] | IC50 [10] | IC50 [12] | IC50 [14]
0% | 8% | – | – | – | – | – | – | – | – | – | – | – | – | – | CCCN1C(=O)CS/C1=N/c1ccccc1 | – | – | – | – | –
24% | 0% | 36.2 µM | 64.1 µM | > 100 µM | > 100 µM | 92.8 µM | > 100 µM | 13.1 µM | > 100 µM | 23.4 µM | > 100 µM | > 100 µM | – | – | CCCN1C(=O)/C(=C/c2cccc(OC)c2)S/C1=N/c1ccccc1 | > 100 µM | 34.2 µM | > 100 µM | > 100 µM | > 100 µM
– | – | – | – | – | – | – | – | – | – | – | – | – | 53.7 µM | 1.12 µM | COc1ccc(C2SCC(=O)N2CCN2C(=O)CSC2c2ccc(OC)cc2)cc1 (stereo not given) | – | – | – | – | –
0% | 0% | 31.4 µM | 38.8 µM | 48.8 µM | 31.4 µM | 71.7 µM | 100 µM | 17.8 µM | 40.1 µM | 59.7 µM | 37.4 µM | 82.2 µM | – | – | O=C1NC(=O)/C(=C/c2cccc(C(F)(F)F)c2)S1 | 83.2 µM | 45.5 µM | 36.8 µM | 97.6 µM | 91.7 µM
